For 40 compounds, selectivity ratio and IC50 results are on record in ChEMBL document CHEMBL3132842, “Synthesis of metergoline analogues and their evaluation as antiplasmodial agents” (Medchemcomm, 2014).

Data set [1] is described as follows: Selectivity index, ratio of IC50 for CHO cells to IC50 for chloroquine-sensitive Plasmodium falciparum NF54. Conditions: hamster, read-out: Ratio IC50. It is filed as toxicity, cell-based.
The subject of data set [2] is Plasmodium falciparum. Briefly: Antiplasmodial activity against chloroquine-sensitive Plasmodium falciparum NF54 assessed as reduction in parasite growth by parasite lactate dehydrogenase assay. It is filed as functional, organism-based.
For another data set, the system named is CHO. Briefly: Cytotoxicity against CHO cells by MTT assay. In kind it is cell-based. Conditions: Cricetulus griseus.
The subject of data set [3] is Plasmodium falciparum. Briefly: Antiplasmodial activity against Plasmodium falciparum after 48 hrs by NIH quantitative high throughput screen assay. It is filed as functional, organism-based.

For orientation: IC50 means the concentration needed to halve the response being measured.

Molecules are shown by their SMILES.

Regarding `CC(=O)c1ccc(C(=O)NC[C@@H]2C[C@@H]3c4cccc5c4c(cn5C)C[C@H]3N(C)C2)cc1`, in data set [1], the selectivity ratio turned out to be 12. The results for the IC50 with Plasmodium falciparum [2] and in the data set with CHO were 12.3 µM and 152 µM, respectively.

With `CN1C[C@H](CNC(=O)C2CCCCN2)C[C@@H]2c3cccc4c3c(cn4C)C[C@H]21` (stereo not given in full), the selectivity ratio in data set [1] was found to be 13. The IC50 in the data set with Plasmodium falciparum [2] stood at 1.23 µM; with CHO, 16.6 µM.

With `CN1C[C@H](CNC(=O)c2cccnc2)C[C@@H]2c3cccc4c3c(cn4C)C[C@H]21`, the selectivity ratio in data set [1] was 9. The results for the IC50 in the data set on Plasmodium falciparum [2] and in the data set with CHO were 17.4 µM and 162 µM, respectively.

In the case of `CN1C[C@H](CNC(=O)c2ccncc2)C[C@@H]2c3cccc4c3c(cn4C)C[C@H]21`, in data set [1], the selectivity ratio came out at 9. The IC50 amounted to 17.5 µM in the data set on Plasmodium falciparum [2] and 161 µM in the data set on CHO.

As to `CN1C[C@H](CNC(=O)c2ccccn2)C[C@@H]2c3cccc4c3c(cn4C)C[C@H]21`, the selectivity ratio in data set [1] was 10. Also, the IC50 was 11.4 µM in the data set on Plasmodium falciparum [2] and 112 µM in the data set on CHO.

As for `CN1C[C@H](CNC(=O)c2cnccn2)C[C@@H]2c3cccc4c3c(cn4C)C[C@H]21`, the selectivity ratio in data set [1] came to 20. For the same compound, the IC50 with Plasmodium falciparum [2] was found to be 8.4 µM; in the data set on CHO, 164 µM.

With `CN1C[C@H](CNC(=O)c2ccncn2)C[C@@H]2c3cccc4c3c(cn4C)C[C@H]21`, the IC50 in the data set with Plasmodium falciparum [2] worked out at 27.4 µM.

On to `CC(=O)NC[C@@H]1C[C@@H]2c3cccc4c3c(cn4C)C[C@H]2N(C)C1`, for which the IC50 in the data set on Plasmodium falciparum [2] stood at 199 µM.

As to `CCC(=O)NC[C@@H]1C[C@@H]2c3cccc4c3c(cn4C)C[C@H]2N(C)C1`, the IC50 in the data set with Plasmodium falciparum [2] was determined as 40.3 µM.

Consider `CCCC(=O)NC[C@@H]1C[C@@H]2c3cccc4c3c(cn4C)C[C@H]2N(C)C1`, for which, in the data set with Plasmodium falciparum [2], the IC50 was 32.1 µM.

As to `CCCCC(=O)NC[C@@H]1C[C@@H]2c3cccc4c3c(cn4C)C[C@H]2N(C)C1`, the selectivity ratio in data set [1] was determined as 6. Also, the IC50 with Plasmodium falciparum [2] came to 18.7 µM; with CHO it was 105 µM.

For the compound `CN1C[C@H](CNC(=O)C(C)(C)C)C[C@@H]2c3cccc4c3c(cn4C)C[C@H]21`, the half-inhibitory concentration (IC50) in the data set on Plasmodium falciparum [2] is 89.1 µM.

For the compound `CCCCCC(=O)NC[C@@H]1C[C@@H]2c3cccc4c3c(cn4C)C[C@H]2N(C)C1`, the IC50 in the data set on Plasmodium falciparum [2] came out at 28.6 µM.

As to `CCCCCCC(=O)NC[C@@H]1C[C@@H]2c3cccc4c3c(cn4C)C[C@H]2N(C)C1`, the selectivity ratio in data set [1] came to 1. Further, the IC50 with Plasmodium falciparum [2] worked out at 9.1 µM; in the data set on CHO it was 8.9 µM.

With `CCCCCCCC(=O)NC[C@@H]1C[C@@H]2c3cccc4c3c(cn4C)C[C@H]2N(C)C1`, in data set [1], the selectivity ratio came out at 1. Also, the IC50 in the data set with Plasmodium falciparum [2] was determined as 3.9 µM; with CHO it was 4.6 µM.

Take `CCCCCCCCCC(=O)NC[C@@H]1C[C@@H]2c3cccc4c3c(cn4C)C[C@H]2N(C)C1`: the selectivity ratio in data set [1] worked out at 17. Moreover, the 50% inhibitory concentration (IC50) stood at 5.2 µM with Plasmodium falciparum [2] and 86.6 µM in the data set with CHO.

With `CN1C[C@H](CNC(=O)C2CCCC2)C[C@@H]2c3cccc4c3c(cn4C)C[C@H]21`, in data set [1], the selectivity ratio was 33. The IC50 was determined as 4.3 µM in the data set with Plasmodium falciparum [2] and 144 µM in the data set with CHO.

Take `CN1C[C@H](CNC(=O)c2ccc(OC(F)(F)F)cc2)C[C@@H]2c3cccc4c3c(cn4C)C[C@H]21`: the selectivity ratio in data set [1] stood at 3. Moreover, the IC50 in the data set with Plasmodium falciparum [2] worked out at 4.2 µM; in the data set on CHO, 12.8 µM.

Turning to `CN1C[C@H](CNC(=O)c2ccc([N+](=O)[O-])cc2)C[C@@H]2c3cccc4c3c(cn4C)C[C@H]21`, the selectivity ratio in data set [1] is 11. The values for the IC50 in the data set with Plasmodium falciparum [2] and with CHO were 0.5 µM and 5 µM, respectively.

Consider `CN1C[C@H](CNC(=O)c2ccc(Cl)cc2)C[C@@H]2c3cccc4c3c(cn4C)C[C@H]21`, for which the selectivity ratio in data set [1] came to 3. Further, the values for the IC50 in the data set on Plasmodium falciparum [2] and in the data set on CHO were 1.3 µM and 4.3 µM, respectively.

Turning to `CN1C[C@H](CNC(=O)c2ccccc2Cl)C[C@@H]2c3cccc4c3c(cn4C)C[C@H]21`, the selectivity ratio in data set [1] is 2. Moreover, the IC50 in the data set on Plasmodium falciparum [2] was 14.6 µM; with CHO, 25 µM.

As to `CN1C[C@H](CNC(=O)c2cccc(Cl)c2)C[C@@H]2c3cccc4c3c(cn4C)C[C@H]21`, the selectivity ratio in data set [1] stood at 1. In addition, the IC50 is 4.9 µM with Plasmodium falciparum [2] and 4.7 µM with CHO.

`CN1C[C@H](CNC(=O)c2ccc(Cl)c(Cl)c2)C[C@@H]2c3cccc4c3c(cn4C)C[C@H]21`: in data set [1], the selectivity ratio is 1. Also, the IC50 in the data set with Plasmodium falciparum [2] was found to be 4.8 µM; in the data set on CHO, 3.8 µM.

For the compound `CN1C[C@H](CNC(=O)c2ccc(Cl)cc2Cl)C[C@@H]2c3cccc4c3c(cn4C)C[C@H]21`, the selectivity ratio in data set [1] was 1. For the same compound, the IC50 was 8.3 µM with Plasmodium falciparum [2] and 7.5 µM in the data set with CHO.

Take `CN1C[C@H](CNC(=O)c2ccc(C#N)cc2)C[C@@H]2c3cccc4c3c(cn4C)C[C@H]21`: the selectivity ratio in data set [1] was 188. Besides, the values for the IC50 in the data set with Plasmodium falciparum [2] and with CHO were 0.6 µM and 104 µM, respectively.

Turning to `CN1C[C@H](CNC(=O)c2ccc(S(C)(=O)=O)cc2)C[C@@H]2c3cccc4c3c(cn4C)C[C@H]21`, in data set [1], the selectivity ratio turned out to be 16. Besides, the results for the IC50 with Plasmodium falciparum [2] and in the data set on CHO were 14.2 µM and 222 µM, respectively.

Turning to `COc1ccc(C(=O)NC[C@@H]2C[C@@H]3c4cccc5c4c(cn5C)C[C@H]3N(C)C2)cc1`, in data set [1], the selectivity ratio is 1. Also, the results for the IC50 in the data set with Plasmodium falciparum [2] and in the data set with CHO were 8.4 µM and 7.4 µM, respectively.

In the case of `CSc1ccc(C(=O)NC[C@@H]2C[C@@H]3c4cccc5c4c(cn5C)C[C@H]3N(C)C2)cc1`, the selectivity ratio in data set [1] was 1. Further, the IC50 is 4.7 µM in the data set with Plasmodium falciparum [2] and 6 µM in the data set with CHO.

`CCc1ccc(C(=O)NC[C@@H]2C[C@@H]3c4cccc5c4c(cn5C)C[C@H]3N(C)C2)cc1`: the selectivity ratio in data set [1] is 1. The IC50 with Plasmodium falciparum [2] is 4.3 µM; in the data set with CHO, 5.6 µM.

On to `CCCCc1ccc(C(=O)NC[C@@H]2C[C@@H]3c4cccc5c4c(cn5C)C[C@H]3N(C)C2)cc1`, for which, in data set [1], the selectivity ratio stood at 7. The figures for the IC50 in the data set on Plasmodium falciparum [2] and with CHO were 2 µM and 14.5 µM, respectively.

For the compound `CN(C)c1ccc(C(=O)NC[C@@H]2C[C@@H]3c4cccc5c4c(cn5C)C[C@H]3N(C)C2)cc1`, the selectivity ratio in data set [1] is 4. The IC50 in the data set on Plasmodium falciparum [2] turned out to be 33.8 µM; in the data set on CHO, 132 µM.

Consider `CN1C[C@H](CN)C[C@@H]2c3cccc4c3c(cn4C)C[C@H]21`, for which the selectivity ratio in data set [1] was 7. Besides, the IC50 in the data set on Plasmodium falciparum [2] turned out to be 3.6 µM; with CHO, 26.1 µM.

With `CN1C[C@H](CNC(=O)c2ccccc2)C[C@@H]2c3cccc4c3c(cn4C)C[C@H]21`, the selectivity ratio in data set [1] stood at 1. Besides, the IC50 in the data set on Plasmodium falciparum [2] was found to be 24.4 µM; with CHO, 27 µM.

For the compound `CN1C[C@H](CNC(=O)c2ccc(F)cc2)C[C@@H]2c3cccc4c3c(cn4C)C[C@H]21`, the selectivity ratio in data set [1] came to 0.6. In addition, the IC50 in the data set on Plasmodium falciparum [2] was determined as 12.5 µM; in the data set on CHO it was 7.3 µM.

Consider `CN1C[C@H](CNC(=O)c2ccc(Br)cc2)C[C@@H]2c3cccc4c3c(cn4C)C[C@H]21`, for which the selectivity ratio in data set [1] came to 2. The values for the IC50 in the data set with Plasmodium falciparum [2] and with CHO were 2.6 µM and 5.1 µM, respectively.

Consider `CN1C[C@H](CNC(=O)c2ccc(I)cc2)C[C@@H]2c3cccc4c3c(cn4C)C[C@H]21`, for which the selectivity ratio in data set [1] came to 2. Besides, the figures for the IC50 in the data set with Plasmodium falciparum [2] and in the data set on CHO were 3 µM and 5.5 µM, respectively.

Regarding `CN1C[C@H](CNC(=O)c2ccc(C(F)(F)F)cc2)C[C@@H]2c3cccc4c3c(cn4C)C[C@H]21`, the selectivity ratio in data set [1] worked out at 2. Moreover, the 50% inhibitory concentration (IC50) in the data set on Plasmodium falciparum [2] turned out to be 2.7 µM; with CHO it was 4.9 µM.

Take `C[C@H]1[C@H](OC(=O)CCC(=O)O)O[C@@H]2O[C@@]3(C)CC[C@H]4[C@H](C)CC[C@@H]1[C@@]24OO3` [ARTESUNATE]: in the data set with Plasmodium falciparum [2], the IC50 was 2.8 ng/mL.

Compound `CC[C@H]1CN2CCc3cc(OC)c(OC)cc3[C@@H]2C[C@@H]1C[C@H]1NCCc2cc(OC)c(OC)cc21` [EMETINE] displayed an IC50 with CHO of 0.05 µM.

With `CN1C[C@H](CNC(=O)OCc2ccccc2)C[C@@H]2c3cccc4c3c(cn4C)C[C@H]21` [METERGOLINE], the selectivity ratio in data set [1] was 4.5. The figures for the IC50 in the data set with Plasmodium falciparum [2], in the data set on Plasmodium falciparum [3] and in the data set with CHO were 3.7 µM, 7.4 µM and 16.6 µM, respectively.
